The source made the active and inactive calls.
Assays:
[1] = HEp-2 cell cytotoxicity, dose response, cytotoxicity control for RSV inhibitor project, HTS (AID 2410); format: functional; conditions: human respiratory syncytial virus
[2] = inhibitors of intracellular T. cruzi replication, confirmation, NIH3T3 host cells, beta-gal luminescence (AID 2044); format: functional, cell-based;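 note: intracellular parasites grown in NIH/3T3 mouse fibroblasts as host cells; luminescent beta-galactosidase reporter signal from transgenic T. cruzi replicating inside host cells; inhibitors lower the luminescence signal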
[3] = cytotoxicity toward NIH3T3 fibroblasts, dose response, counter-screen, cell-based, ATP luminescence, mouse fibroblasts (AID 2010); format: functional;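 note: cells exposed to compound for about 90 hours before reading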
[4] = target: T1, Probable nicotinate-nucleotide adenylyltransferase (Staphylococcus aureus (strain N315), UniProt P65502); format: functional, Staphylococcus aureus subsp. aureus N315;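 for IC50 Mean: confirmatory dose-response retesting of NadD inhibitor hits first found in an ultra-high-throughput screen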
T1 sequence (P65502 whole entry): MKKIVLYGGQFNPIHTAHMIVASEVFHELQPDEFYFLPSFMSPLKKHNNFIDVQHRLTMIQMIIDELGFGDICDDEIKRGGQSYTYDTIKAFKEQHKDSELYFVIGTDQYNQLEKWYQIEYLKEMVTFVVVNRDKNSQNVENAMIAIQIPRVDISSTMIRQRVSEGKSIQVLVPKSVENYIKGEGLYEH

[5] = target: T1, Probable nicotinate-nucleotide adenylyltransferase; format: functional, Staphylococcus aureus subsp. aureus N315; conditions: read-out: IC50_Mean
Albumin = Albumin (Bos taurus, UniProt P02769); assay: Counterscreen for inhibitors of T-cell receptor (TCR)-CD3 interaction: Fluorescence-based biochemical high throughput dose response assay to identify inhibitors of T-cell receptor (TCR)-CD3 interaction using a TAMRA-labeled BSA probe.; format: functional
Sequence of Albumin (P02769 whole entry, the tested form may be a part): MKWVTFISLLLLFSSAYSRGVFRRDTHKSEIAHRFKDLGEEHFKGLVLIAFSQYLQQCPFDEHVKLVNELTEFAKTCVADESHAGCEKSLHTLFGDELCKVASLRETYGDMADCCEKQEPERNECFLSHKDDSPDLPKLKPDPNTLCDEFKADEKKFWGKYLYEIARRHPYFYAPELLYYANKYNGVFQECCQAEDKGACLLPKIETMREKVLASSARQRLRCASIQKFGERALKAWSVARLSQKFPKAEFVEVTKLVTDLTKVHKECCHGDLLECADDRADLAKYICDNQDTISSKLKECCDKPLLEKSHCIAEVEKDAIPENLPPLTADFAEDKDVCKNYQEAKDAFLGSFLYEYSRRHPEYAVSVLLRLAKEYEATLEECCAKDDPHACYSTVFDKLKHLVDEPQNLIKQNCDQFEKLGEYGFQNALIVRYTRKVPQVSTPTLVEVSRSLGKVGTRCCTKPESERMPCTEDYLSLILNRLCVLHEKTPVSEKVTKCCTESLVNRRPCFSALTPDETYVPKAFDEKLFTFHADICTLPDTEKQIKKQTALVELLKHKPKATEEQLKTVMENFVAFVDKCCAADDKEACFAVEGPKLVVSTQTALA

[6] = target: Photoreceptor-specific nuclear receptor (Homo sapiens, UniProt Q9Y5X4); format: functional, cell-based;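 note: CHO-S cells with Gal4-NCOR and VP16-NR2E3 two-hybrid luciferase reporter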
Sequence of Photoreceptor-specific nuclear receptor (Q9Y5X4 whole entry, the tested form may be a part): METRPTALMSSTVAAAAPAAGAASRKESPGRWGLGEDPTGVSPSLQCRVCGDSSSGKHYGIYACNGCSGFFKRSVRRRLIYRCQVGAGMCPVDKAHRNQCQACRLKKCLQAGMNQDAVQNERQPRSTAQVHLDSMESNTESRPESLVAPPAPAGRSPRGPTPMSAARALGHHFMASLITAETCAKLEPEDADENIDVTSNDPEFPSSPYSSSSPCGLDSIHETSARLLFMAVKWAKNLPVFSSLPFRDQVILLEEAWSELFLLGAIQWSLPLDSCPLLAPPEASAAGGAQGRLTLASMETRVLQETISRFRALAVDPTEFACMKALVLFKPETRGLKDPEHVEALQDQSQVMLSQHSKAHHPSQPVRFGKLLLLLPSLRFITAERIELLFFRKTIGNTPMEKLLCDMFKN

[7] = target: T2, Carboxy-terminal domain RNA polymerase II polypeptide A small phosphatase 1 (Homo sapiens, UniProt Q9GZU7); assay: inhibitors of CTDSP1, concentration-response testing, biochemical assay, absorbance-based, actives from ultra-high-throughput screening (AID 540297); format: functional
T2 sequence (Q9GZU7 whole entry): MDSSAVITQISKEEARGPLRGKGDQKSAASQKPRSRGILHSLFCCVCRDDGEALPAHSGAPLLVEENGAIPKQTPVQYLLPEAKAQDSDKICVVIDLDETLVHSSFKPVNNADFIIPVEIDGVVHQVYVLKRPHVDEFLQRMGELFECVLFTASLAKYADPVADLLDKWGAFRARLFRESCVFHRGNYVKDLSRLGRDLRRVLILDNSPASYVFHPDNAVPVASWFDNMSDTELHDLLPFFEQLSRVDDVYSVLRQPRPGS

[8] = target: T3, Low molecular weight phosphotyrosine protein phosphatase (Homo sapiens, UniProt P24666); format: functional; conditions: read-out: IC50_Mean
T3 sequence (P24666 whole entry): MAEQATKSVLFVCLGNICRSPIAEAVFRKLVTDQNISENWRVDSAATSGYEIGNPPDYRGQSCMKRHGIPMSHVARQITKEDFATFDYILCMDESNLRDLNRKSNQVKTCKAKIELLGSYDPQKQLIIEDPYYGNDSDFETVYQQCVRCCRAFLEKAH

[9] = target: T3, Low molecular weight phosphotyrosine protein phosphatase; format: functional; conditions: read-out: IC50_Mean; remark: listed apart in the source
[10] = target: T4, Corticotropin-releasing factor receptor 2/Corticotropin-releasing factor-binding protein (Homo sapiens, UniProt P24387+Q13324); assay: Dose Response confirmation of uHTS hits for small molecule antagonists of the CRF-binding protein and CRF-R2 receptor complex.; format: functional; conditions: read-out: IC50_Mean
T4 sequence (Q13324 whole entry): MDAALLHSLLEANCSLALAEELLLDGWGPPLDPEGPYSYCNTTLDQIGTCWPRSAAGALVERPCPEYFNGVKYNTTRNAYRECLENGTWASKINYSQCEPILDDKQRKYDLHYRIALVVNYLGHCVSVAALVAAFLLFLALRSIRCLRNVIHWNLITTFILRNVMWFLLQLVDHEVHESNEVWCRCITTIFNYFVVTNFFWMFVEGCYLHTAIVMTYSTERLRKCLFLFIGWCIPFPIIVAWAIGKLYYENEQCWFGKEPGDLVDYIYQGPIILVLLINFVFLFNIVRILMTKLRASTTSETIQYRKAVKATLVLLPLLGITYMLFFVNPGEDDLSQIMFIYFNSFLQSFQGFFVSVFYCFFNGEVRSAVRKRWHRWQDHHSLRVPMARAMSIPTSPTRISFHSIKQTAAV
T4 sequence (P24387 whole entry): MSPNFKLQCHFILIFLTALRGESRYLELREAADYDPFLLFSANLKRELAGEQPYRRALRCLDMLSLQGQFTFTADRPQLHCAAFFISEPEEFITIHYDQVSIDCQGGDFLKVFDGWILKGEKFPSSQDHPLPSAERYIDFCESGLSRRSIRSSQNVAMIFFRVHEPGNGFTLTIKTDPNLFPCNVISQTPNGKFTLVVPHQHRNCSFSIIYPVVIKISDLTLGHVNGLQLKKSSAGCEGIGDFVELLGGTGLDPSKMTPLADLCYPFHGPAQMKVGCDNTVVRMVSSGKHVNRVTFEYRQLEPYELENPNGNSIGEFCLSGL

[11] = target: T4, Corticotropin-releasing factor receptor 2/Corticotropin-releasing factor-binding protein; assay: activators of CRF receptor 2 with binding protein – uHTS hits, confirmation (AID 602473); format: functional; conditions: read-out: EC50_Mean
[12] = CRF-BP/CRF-R2 complex antagonists, dose response, cell-based, uHTS hits, 384-well (AID 651639); format: functional, Homo sapiens; conditions: read-out: IC50_Mean
H9c2 = assay: cells; format: functional, cell-based; conditions: Rattus norvegicus, H9c2, Myocardium;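 note: confirmatory concentration-response retest of ultra-high-throughput screening hits for modulation of myocardial damage; cell death induced by hydrogen peroxide oxidative stress; compound pretreatment for 60 min then peroxide exposure for 2 h; potency is for protecting the cells against peroxide damage rather than for killing them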
[13] = target: T5, ATP-dependent translocase ABCB1 (Homo sapiens, UniProt P08183); assay: ABCG2 efflux pump inhibitor potency, dose response, Ig-MXP3 cells, JC-1, flow cytometry, set 2 (AID 504566); format: functional; conditions: read-out: EC50_MICROM_;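 note: flow cytometry median green fluorescence of retained JC-1 dye; potency of efflux pump inhibition measured as rising substrate retention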
T5 sequence (P08183 whole entry): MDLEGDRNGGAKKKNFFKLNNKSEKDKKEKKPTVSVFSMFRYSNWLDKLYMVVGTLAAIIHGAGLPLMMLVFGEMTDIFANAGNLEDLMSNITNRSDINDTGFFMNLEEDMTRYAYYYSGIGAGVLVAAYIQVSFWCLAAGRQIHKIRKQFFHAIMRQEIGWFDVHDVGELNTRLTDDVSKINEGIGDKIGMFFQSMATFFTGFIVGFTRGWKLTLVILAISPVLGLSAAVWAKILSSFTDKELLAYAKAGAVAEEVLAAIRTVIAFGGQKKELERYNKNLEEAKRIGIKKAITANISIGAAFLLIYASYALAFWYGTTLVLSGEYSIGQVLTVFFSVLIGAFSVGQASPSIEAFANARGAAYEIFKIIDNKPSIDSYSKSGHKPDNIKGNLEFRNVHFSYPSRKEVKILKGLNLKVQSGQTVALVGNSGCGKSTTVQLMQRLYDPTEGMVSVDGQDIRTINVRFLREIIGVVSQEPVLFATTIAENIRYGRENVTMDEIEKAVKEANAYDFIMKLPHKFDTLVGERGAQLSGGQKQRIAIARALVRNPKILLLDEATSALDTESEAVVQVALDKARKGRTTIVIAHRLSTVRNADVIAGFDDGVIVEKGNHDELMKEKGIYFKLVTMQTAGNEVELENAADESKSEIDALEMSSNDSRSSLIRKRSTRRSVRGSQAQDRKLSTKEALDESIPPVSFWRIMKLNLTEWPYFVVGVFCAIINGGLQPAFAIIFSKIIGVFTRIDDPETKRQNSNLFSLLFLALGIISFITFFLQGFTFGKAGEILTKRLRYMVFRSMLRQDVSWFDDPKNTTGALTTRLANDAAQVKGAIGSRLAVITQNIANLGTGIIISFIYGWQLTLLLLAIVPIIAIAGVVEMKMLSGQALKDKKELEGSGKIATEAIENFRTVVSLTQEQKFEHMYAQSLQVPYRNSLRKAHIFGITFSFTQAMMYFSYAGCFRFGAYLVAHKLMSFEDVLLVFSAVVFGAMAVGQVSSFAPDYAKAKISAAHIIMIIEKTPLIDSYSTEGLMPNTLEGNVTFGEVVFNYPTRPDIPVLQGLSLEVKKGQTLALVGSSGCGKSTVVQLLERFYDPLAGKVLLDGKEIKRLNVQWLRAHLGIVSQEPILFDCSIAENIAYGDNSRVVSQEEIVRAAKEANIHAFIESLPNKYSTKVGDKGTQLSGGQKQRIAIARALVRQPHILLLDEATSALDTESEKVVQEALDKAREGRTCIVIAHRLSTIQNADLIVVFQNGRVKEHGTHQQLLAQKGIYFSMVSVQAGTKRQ

[14] = target: T5, ATP-dependent translocase ABCB1; assay: ABCB1 efflux inhibitor potency, dose response, Jurkat-DNR cells, JC-1, flow cytometry, set 2 (AID 504569); format: functional; conditions: read-out: EC50_MICROM_;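 note: potency of pump inhibitors that raise cellular JC-1 green fluorescence up to the nicardipine level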
[15] = target: T6, Heat shock factor protein 1 (Mus musculus, UniProt P38532); assay: HSF1 potentiators in luciferase reporter cells, confirmation, cell-based, NIH3T3, luminescence, dose retest (AID 435004); format: functional;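 note: stress induced by proteasome inhibitor MG132 added 30 min after compound; luciferase reporter driven by HSF1 response element in NIH3T3 cells; actives raise luminescence as potentiators of the MG132 stress response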
T6 sequence (P38532 whole entry): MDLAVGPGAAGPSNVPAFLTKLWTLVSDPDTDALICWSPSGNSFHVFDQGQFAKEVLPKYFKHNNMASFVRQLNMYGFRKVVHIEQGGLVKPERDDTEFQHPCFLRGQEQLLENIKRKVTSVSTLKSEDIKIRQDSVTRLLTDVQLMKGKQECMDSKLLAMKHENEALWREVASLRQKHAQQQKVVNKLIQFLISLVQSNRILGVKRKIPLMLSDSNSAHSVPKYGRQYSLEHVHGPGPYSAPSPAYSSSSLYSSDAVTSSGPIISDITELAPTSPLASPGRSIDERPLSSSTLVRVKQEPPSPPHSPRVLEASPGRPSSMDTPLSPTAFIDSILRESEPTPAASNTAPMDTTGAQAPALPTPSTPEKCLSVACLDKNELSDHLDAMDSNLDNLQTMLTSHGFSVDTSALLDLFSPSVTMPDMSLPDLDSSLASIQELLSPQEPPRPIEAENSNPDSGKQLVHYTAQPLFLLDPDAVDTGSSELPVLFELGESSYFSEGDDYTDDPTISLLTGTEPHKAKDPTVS

[16] = target: T7, Replicative DNA helicase DnaB (Mycobacterium tuberculosis, UniProt P9WMR3); assay: DnaB intein splicing inhibitors, dose response, biochemical, cell-free fluorescence (AID 449749); format: functional
T7 sequence (P9WMR3 whole entry): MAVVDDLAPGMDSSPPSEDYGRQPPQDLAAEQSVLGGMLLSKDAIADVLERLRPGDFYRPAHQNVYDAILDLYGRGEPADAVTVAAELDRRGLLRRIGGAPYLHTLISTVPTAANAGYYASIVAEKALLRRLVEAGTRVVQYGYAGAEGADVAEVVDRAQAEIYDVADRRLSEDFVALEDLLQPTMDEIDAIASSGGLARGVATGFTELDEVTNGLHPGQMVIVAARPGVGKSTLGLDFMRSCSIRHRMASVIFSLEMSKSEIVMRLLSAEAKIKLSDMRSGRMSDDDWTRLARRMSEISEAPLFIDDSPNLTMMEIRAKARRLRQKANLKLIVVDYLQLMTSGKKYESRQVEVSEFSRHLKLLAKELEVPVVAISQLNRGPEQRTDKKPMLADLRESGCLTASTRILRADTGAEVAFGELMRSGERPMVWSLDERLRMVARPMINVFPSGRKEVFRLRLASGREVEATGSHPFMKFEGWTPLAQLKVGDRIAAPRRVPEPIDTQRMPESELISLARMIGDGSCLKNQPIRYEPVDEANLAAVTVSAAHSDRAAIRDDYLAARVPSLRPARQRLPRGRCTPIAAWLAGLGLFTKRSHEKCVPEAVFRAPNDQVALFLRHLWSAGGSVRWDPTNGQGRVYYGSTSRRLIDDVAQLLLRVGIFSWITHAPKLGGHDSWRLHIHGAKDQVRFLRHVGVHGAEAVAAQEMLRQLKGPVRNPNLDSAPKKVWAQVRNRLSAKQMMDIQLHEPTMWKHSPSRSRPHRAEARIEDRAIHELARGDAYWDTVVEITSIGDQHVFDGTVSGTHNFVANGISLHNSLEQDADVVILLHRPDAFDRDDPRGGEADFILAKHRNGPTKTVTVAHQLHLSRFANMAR

Protein RecA = target: T8, Protein RecA (Mycobacterium tuberculosis, UniProt P9WHJ3); assay: Fluorescence Cell-Free Homogeneous Dose Retest to Identify Inhibitors of RecA-Intein Splicing Activity. [Related pubchem assays (depositor defined):AID2097, AID2223, AID489010, AID492950]; format: functional
T8 sequence (P9WHJ3 whole entry): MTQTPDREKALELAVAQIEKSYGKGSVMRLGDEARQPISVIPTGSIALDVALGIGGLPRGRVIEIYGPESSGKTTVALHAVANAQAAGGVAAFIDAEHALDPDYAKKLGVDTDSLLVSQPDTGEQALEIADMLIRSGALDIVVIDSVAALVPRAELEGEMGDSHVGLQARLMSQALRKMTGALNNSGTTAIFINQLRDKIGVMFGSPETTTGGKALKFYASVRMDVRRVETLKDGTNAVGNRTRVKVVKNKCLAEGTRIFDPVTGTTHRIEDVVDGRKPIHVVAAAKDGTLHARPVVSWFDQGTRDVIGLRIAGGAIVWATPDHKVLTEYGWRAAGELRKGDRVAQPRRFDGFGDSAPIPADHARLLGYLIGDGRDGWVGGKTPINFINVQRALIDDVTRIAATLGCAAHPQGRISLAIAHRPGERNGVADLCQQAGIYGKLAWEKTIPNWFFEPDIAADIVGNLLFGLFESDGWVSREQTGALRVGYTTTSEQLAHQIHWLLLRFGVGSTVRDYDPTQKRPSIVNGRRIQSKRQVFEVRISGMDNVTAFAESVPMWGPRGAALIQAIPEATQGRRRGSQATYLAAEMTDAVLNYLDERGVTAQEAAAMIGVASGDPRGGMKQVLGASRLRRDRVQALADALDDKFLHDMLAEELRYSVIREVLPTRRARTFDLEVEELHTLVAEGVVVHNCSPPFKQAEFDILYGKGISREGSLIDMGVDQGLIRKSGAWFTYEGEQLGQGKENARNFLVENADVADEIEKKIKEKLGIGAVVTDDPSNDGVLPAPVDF

[17] = target: Hepatocyte nuclear factor 4-alpha (Homo sapiens, UniProt P41235); format: functional, cell-based;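 note: biochemical luminescence-based dose-response counterscreen measuring inhibition of HNF4 dimerization, run alongside a screen for blockers of ABHD5–perilipin-5 interaction; split luciferase complementation of HNF4 fusion proteins in cell lysate measuring dimerization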
Sequence of Hepatocyte nuclear factor 4-alpha (P41235 whole entry, the tested form may be a part): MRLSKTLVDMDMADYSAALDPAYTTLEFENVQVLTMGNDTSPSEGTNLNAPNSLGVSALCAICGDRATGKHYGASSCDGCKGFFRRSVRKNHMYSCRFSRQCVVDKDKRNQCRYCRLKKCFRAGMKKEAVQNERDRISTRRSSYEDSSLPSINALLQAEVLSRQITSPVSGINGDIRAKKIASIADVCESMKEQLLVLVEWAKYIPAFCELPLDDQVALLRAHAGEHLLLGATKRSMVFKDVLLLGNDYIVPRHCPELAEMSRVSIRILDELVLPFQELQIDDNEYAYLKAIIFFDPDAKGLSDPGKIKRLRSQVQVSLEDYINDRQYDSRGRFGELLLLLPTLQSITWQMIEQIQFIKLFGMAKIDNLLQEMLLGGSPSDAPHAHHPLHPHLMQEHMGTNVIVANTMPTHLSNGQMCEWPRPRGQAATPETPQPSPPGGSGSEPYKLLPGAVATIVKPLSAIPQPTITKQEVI

[18] = MDA-MB-231 cell growth inhibition, dose response, cytotoxicity control for RAD54 inhibitor project, CellTiter-Glo luminescence, cherry-pick (AID 651692); format: functional, cell-based
[19] = target: T9, DNA repair and recombination protein RAD54-like (Homo sapiens, UniProt Q92698); assay: inhibitors of human RAD54 branch migration, confirmation, biochemical, fluorescence, cherry-picked samples, dose series (AID 651657); format: functional
T9 sequence (Q92698 whole entry): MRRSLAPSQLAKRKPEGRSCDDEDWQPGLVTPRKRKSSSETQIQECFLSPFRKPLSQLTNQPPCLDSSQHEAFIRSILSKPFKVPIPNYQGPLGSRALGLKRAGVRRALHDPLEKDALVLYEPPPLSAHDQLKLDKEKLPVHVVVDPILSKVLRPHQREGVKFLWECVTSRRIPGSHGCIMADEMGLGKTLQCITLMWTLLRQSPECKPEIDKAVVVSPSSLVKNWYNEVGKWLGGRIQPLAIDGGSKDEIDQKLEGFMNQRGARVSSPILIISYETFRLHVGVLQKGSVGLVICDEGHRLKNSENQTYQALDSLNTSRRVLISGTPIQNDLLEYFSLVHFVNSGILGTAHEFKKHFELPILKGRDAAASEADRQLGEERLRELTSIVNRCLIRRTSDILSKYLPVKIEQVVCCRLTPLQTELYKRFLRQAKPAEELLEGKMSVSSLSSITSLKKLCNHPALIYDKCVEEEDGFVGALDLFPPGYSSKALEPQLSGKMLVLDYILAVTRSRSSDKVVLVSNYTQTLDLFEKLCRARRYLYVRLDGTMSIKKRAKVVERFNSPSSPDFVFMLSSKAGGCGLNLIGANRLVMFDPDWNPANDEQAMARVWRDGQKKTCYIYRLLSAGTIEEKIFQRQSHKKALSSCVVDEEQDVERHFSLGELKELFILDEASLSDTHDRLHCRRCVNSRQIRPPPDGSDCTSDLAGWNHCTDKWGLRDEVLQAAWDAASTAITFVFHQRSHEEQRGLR

COCCn1/c(=N/C(=O)c2cc(-c3cccs3)nc3ccccc23)sc2cc(S(N)(=O)=O)ccc21
CC50 [1]: > 50 µM (active) | EC50 [2]: 2.47 µM (active) | EC50 [3]: > 60 µM (not active) | IC50 [4]: 12.4 µM (active) | IC50 [5]: 23.8 µM (active) | IC50 (Albumin): > 94.1 µM (inactive)

O=C(O)CC1(CC(=O)Nc2cc(C(F)(F)F)cc(C(F)(F)F)c2)CCCCC1
IC50 [6]: 2.23 µM (active)

O=C(NNC(=O)c1ccc2ccccc2c1)c1ccc(Cl)cc1
IC50 [7]: > 80 µM (inactive) | IC50 [8]: 54.1 µM (inactive) | IC50 [9]: 20 µM (inactive)

CN(CCOc1ccc(Cl)cc1)C(=O)C1CCN(C(=O)c2ccc(Cl)cc2)CC1
IC50 [10]: < 0.368 µM (active) | EC50 [11]: > 53 µM (inactive) | IC50 [12]: > 20 µM (inactive)

COc1ccc(-c2cc3nc(-c4ccccc4)cc(N4CCN(C(C)=O)CC4)n3n2)cc1
IC50 (H9c2): > 79 µM (inactive) | EC50 [13]: 1.47 µM (active) | EC50 [14]: 1.94 µM (active)

N#Cc1ncc(Cc2ccccc2)nc1C#N
EC50 [15]: 18.1 µM (active) | AC50 [16]: 2.42 µM (active) | EC50 (Protein RecA): 1.71 µM (active) | IC50 [17]: 18.1 µM (inactive)

CCCCN(CC)CCNC(=O)c1cc2c(O)nc3ccc(C)cc3c2s1
AC50 [18]: 23.1 µM (active) | AC50 [19]: 100 µM (inactive)
